Test results as given in patent publication US8952024B2, “Herbicidal pyrimidone derivatives” (E I du Pont de Nemours and Company, priority 2009, dated 2015).

Legend:
Assay in all cases: Test B pre-/postemergence plant response
Type in all cases: in vivo
[1] = test system: Surinam grass (Brachiaria decumbens); details: Postemergence
Summary of the method: (§1)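 Test compounds, formulated in a non-phytotoxic solvent mixture with surfactant, are applied to the soil surface (loam and sand blend) right after seeding, or sprayed over plants at the 1- to 4-leaf stage grown in peat moss/vermiculite medium. After 13 to 15 days under glasshouse conditions, each species is scored visually from 0 (no effect) to 100 (complete control) against controls.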

[2] = test system: green foxtail (Setaria viridis); details: Postemergence
Summary of the method: as §1

[3] = test system: pigweed (Amaranthus retroflexus); details: Postemergence
Summary of the method: as §1

[4] = test system: goosegrass (Eleusine indica); details: Postemergence
Summary of the method: as §1

[5] = test system: yellow nutsedge (Cyperus esculentus); details: Postemergence
Summary of the method: as §1

[6] = test system: ragweed (common ragweed, Ambrosia elatior); details: Postemergence
Summary of the method: as §1

[7] = test system: velvetleaf (Abutilon theophrasti); details: Postemergence
Summary of the method: as §1

[8] = test system: downy bromegrass (Bromus tectorum); details: for Bromegrass, Downy plant response rating (0 to 100 scale): 62 g ai/ha, postemergence, 0 is no effect, 100 is complete control; for Plant response rating, Bromegrass, Downy: Postemergence
Summary of the method: as §1

[9] = test system: lambsquarters (Chenopodium album); details: Postemergence
Summary of the method: as §1

[10] = test system: wheat (Triticum aestivum); details: Postemergence
Summary of the method: as §1

[11] = test system: Italian ryegrass (Lolium multiflorum); details: Postemergence
Summary of the method: as §1

[12] = test system: woolly cupgrass (Eriochloa villosa); details: Postemergence
Summary of the method: as §1

[13] = test system: large crabgrass (Digitaria sanguinalis); details: Postemergence
Summary of the method: as §1

[14] = 31 g ai/ha, 0 to 100 scale (0 no effect, 100 complete control)
[15] = 125 g ai/ha, scale 0 to 100 (0 no effect, 100 complete control)
[16] = 250 g ai/ha, scale 0 to 100 (0 no effect, 100 complete control), 13 to 15 days

Row | Structure (SMILES) | Plant response rating, Surinam Grass [1, 14] | Plant response rating, Foxtail, Green [2, 14] | Plant response rating, Foxtail, Green [2, 15] | Plant response rating, Foxtail, Green [2, 16] | Plant response rating, Pigweed [3, 14] | Plant response rating, Pigweed [3, 15] | Plant response rating, Pigweed [3, 16] | Plant response rating, Goosegrass [4, 14] | Plant response rating, Goosegrass [4, 15] | Plant response rating, Goosegrass [4, 16] | Plant response rating, Nutsedge, Yellow [5, 14] | Plant response rating, Nutsedge, Yellow [5, 15] | Plant response rating, Nutsedge, Yellow [5, 16] | Plant response rating, Ragweed [6, 14] | Plant response rating, Ragweed [6, 15] | Plant response rating, Ragweed [6, 16] | Plant response rating, Velvetleaf [7, 14] | Plant response rating, Velvetleaf [7, 15] | Plant response rating, Velvetleaf [7, 16] | Bromegrass, Downy plant response rating (0 to 100 scale) ([8]; 13 to 15 days) | further results
1 | O=C1CCCC(O)=C1C(=O)c1cnc(-c2cccc(F)c2)n(C2CCCCC2)c1=O [Compound 187] | 65 | 65 | 98 | 98 | 100 | 100 | 100 | 85 | 100 | 100 | 45 | 65 | 75 | 95 | 100 | 100 | 90 | 100 | 100 | 30 | Plant response rating, Bromegrass, Downy [8, 14]: 5; Plant response rating, Bromegrass, Downy [8, 15]: 35; Plant response rating, Bromegrass, Downy [8, 16]: 40; Plant response rating, Lambsquarters [9, 14]: 98; Plant response rating, Lambsquarters [9, 15]: 100; Plant response rating, Lambsquarters [9, 16]: 100; Plant response rating, Wheat [10, 14]: 0; Plant response rating, Wheat [10, 15]: 5; Plant response rating, Wheat [10, 16]: 5; Plant response rating, Ryegrass, Italian [11, 14]: 0; Plant response rating, Ryegrass, Italian [11, 15]: 10; Plant response rating, Ryegrass, Italian [11, 16]: 30; Plant response rating, Cupgrass, Woolly [12, 14]: 80; Plant response rating, Cupgrass, Woolly [12, 15]: 85; Plant response rating, Cupgrass, Woolly [12, 16]: 95; Plant response rating, Crabgrass, Large [13, 14]: 85; Plant response rating, Crabgrass, Large [13, 15]: 100; Plant response rating, Crabgrass, Large [13, 16]: 100
2 | O=C1CCCC(O)=C1C(=O)c1cnc(-c2cccs2)n(C2CCCCC2)c1=O [Compound 189] | 65 | 65 | 90 | 95 | 80 | 100 | 100 | 60 | 90 | 90 | 20 | 55 | 65 | 10 | 75 | 80 | 85 | 100 | 100 | 5 | Plant response rating, Surinam Grass [1, 15]: 80; Plant response rating, Surinam Grass [1, 16]: 85; Plant response rating, Bromegrass, Downy [8, 14]: 0; Plant response rating, Bromegrass, Downy [8, 15]: 5; Plant response rating, Bromegrass, Downy [8, 16]: 10; Plant response rating, Lambsquarters [9, 14]: 98; Plant response rating, Lambsquarters [9, 15]: 100; Plant response rating, Lambsquarters [9, 16]: 100; Plant response rating, Wheat [10, 14]: 0; Plant response rating, Wheat [10, 15]: 0; Plant response rating, Wheat [10, 16]: 0; Plant response rating, Ryegrass, Italian [11, 14]: 0; Plant response rating, Ryegrass, Italian [11, 15]: 5; Plant response rating, Ryegrass, Italian [11, 16]: 5; Plant response rating, Cupgrass, Woolly [12, 14]: 70; Plant response rating, Cupgrass, Woolly [12, 15]: 75; Plant response rating, Cupgrass, Woolly [12, 16]: 80; Plant response rating, Crabgrass, Large [13, 14]: 75; Plant response rating, Crabgrass, Large [13, 15]: 95; Plant response rating, Crabgrass, Large [13, 16]: 100
